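Assay format: 96-well plates, 48-hour exposure. GI50 is the concentration that inhibits growth by half. Definition used: TGI = concentration required for complete inhibition of growth.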
Assays:
Test in all cases: inhibition of tumour cell growth, NCI panel, 48 h
HOP-92 NSCLC = test system: HOP-92 NSCLC
HT29 colon = test system: HT29 colon
HCC-2998 colon = test system: HCC-2998 colon
ACHN renal = test system: ACHN renal
T-47D breast = test system: T-47D breast
OVCAR-4 ovarian = test system: OVCAR-4 ovarian
A549 NSCLC = test system: A549 NSCLC
SR leukemia = test system: SR leukemia
SF-295 CNS = test system: SF-295 CNS
DU-145 prostate = test system: DU-145 prostate
786-0 renal = test system: 786-0 renal
SK-OV-3 ovarian = test system: SK-OV-3 ovarian
IGROV1 ovarian = test system: IGROV1 ovarian
LOX IMVI melanoma = test system: LOX IMVI melanoma
SF-268 CNS = test system: SF-268 CNS
NCI-H522 lung = test system: NCI-H522 lung
CCRF-CEM leukemia = test system: CCRF-CEM leukemia
COLO 205 colon = test system: COLO 205 colon
HS 578T breast = test system: HS 578T breast
RXF 393 renal = test system: RXF 393 renal
HCT-15 colon = test system: HCT-15 colon
EKVX NSCLC = test system: EKVX NSCLC
MOLT-4 leukemia = test system: MOLT-4 leukemia
KM12 colon = test system: KM12 colon
NCI-H226 lung = test system: NCI-H226 lung
SNB-19 CNS = test system: SNB-19 CNS
CAKI-1 renal = test system: CAKI-1 renal
SK-MEL-28 melanoma = test system: SK-MEL-28 melanoma
UACC-62 melanoma = test system: UACC-62 melanoma
MALME-3M melanoma = test system: MALME-3M melanoma
OVCAR-5 ovarian = test system: OVCAR-5 ovarian
BT-549 breast = test system: BT-549 breast
MDA-MB-435 = test system: MDA-MB-435
MDA-MB-231 breast = test system: MDA-MB-231 breast
SNB-75 CNS = test system: SNB-75 CNS
U251 CNS = test system: U251 CNS
SK-MEL-5 melanoma = test system: SK-MEL-5 melanoma
NCI-H23 lung = test system: NCI-H23 lung
HL-60(TB) leukemia = test system: HL-60(TB) leukemia
NCI/ADR-RES ovarian = test system: NCI/ADR-RES ovarian
RPMI-8226 leukemia = test system: RPMI-8226 leukemia
SF-539 CNS = test system: SF-539 CNS
OVCAR-3 ovarian = test system: OVCAR-3 ovarian
UO-31 renal = test system: UO-31 renal
SN12C renal = test system: SN12C renal
NCI-H460 lung = test system: NCI-H460 lung
A498 renal = test system: A498 renal
HCT-116 colon = test system: HCT-116 colon
M14 melanoma = test system: M14 melanoma
PC-3 prostate = test system: PC-3 prostate
UACC-257 melanoma = test system: UACC-257 melanoma
OVCAR-8 ovarian = test system: OVCAR-8 ovarian
K-562 leukemia = test system: K-562 leukemia
HOP-62 NSCLC = test system: HOP-62 NSCLC
SW-620 colon = test system: SW-620 colon
TK-10 renal = test system: TK-10 renal
SK-MEL-2 melanoma = test system: SK-MEL-2 melanoma
MCF7 breast = test system: MCF7 breast

CC1=C(CCC=NNC(N)=O)C2=C(C)C3(CC3)[C@@](C)(O)C(=O)C2=C1
GI50 (HOP-92 NSCLC): 238 nM
TGI (HOP-92 NSCLC): 702 nM
GI50 (HT29 colon): 351 nM
TGI (HT29 colon): 1900 nM
GI50 (HCC-2998 colon): 350 nM
TGI (HCC-2998 colon): 1150 nM
GI50 (ACHN renal): 250 nM
TGI (ACHN renal): 695 nM
GI50 (T-47D breast): 245 nM
TGI (T-47D breast): 1480 nM
GI50 (OVCAR-4 ovarian): 439 nM
TGI (OVCAR-4 ovarian): 1700 nM
GI50 (A549 NSCLC): 281 nM
TGI (A549 NSCLC): 1350 nM
GI50 (SR leukemia): 2580 nM
TGI (SR leukemia): 61800 nM
GI50 (SF-295 CNS): 289 nM
TGI (SF-295 CNS): 1150 nM
GI50 (DU-145 prostate): 120 nM
TGI (DU-145 prostate): 5030 nM
GI50 (786-0 renal): 232 nM
TGI (786-0 renal): 623 nM
GI50 (SK-OV-3 ovarian): 246 nM
TGI (SK-OV-3 ovarian): 666 nM
GI50 (IGROV1 ovarian): 248 nM
TGI (IGROV1 ovarian): 1270 nM
GI50 (LOX IMVI melanoma): 457 nM
TGI (LOX IMVI melanoma): 2110 nM
GI50 (SF-268 CNS): 318 nM
TGI (SF-268 CNS): 4570 nM
GI50 (NCI-H522 lung): 515 nM
TGI (NCI-H522 lung): 1960 nM
GI50 (CCRF-CEM leukemia): 3930 nM
TGI (CCRF-CEM leukemia): 26200 nM
GI50 (COLO 205 colon): 230 nM
TGI (COLO 205 colon): 647 nM
GI50 (HS 578T breast): 1860 nM
TGI (HS 578T breast): 6280 nM
GI50 (RXF 393 renal): 145 nM
TGI (RXF 393 renal): 306 nM
GI50 (HCT-15 colon): 281 nM
TGI (HCT-15 colon): 1320 nM
GI50 (EKVX NSCLC): 1440 nM
TGI (EKVX NSCLC): 6160 nM
GI50 (MOLT-4 leukemia): 2790 nM
TGI (MOLT-4 leukemia): 20900 nM
GI50 (KM12 colon): 1640 nM
TGI (KM12 colon): 5380 nM
GI50 (NCI-H226 lung): 421 nM
TGI (NCI-H226 lung): 3810 nM
GI50 (SNB-19 CNS): 717 nM
TGI (SNB-19 CNS): 7860 nM
GI50 (CAKI-1 renal): 281 nM
TGI (CAKI-1 renal): 2800 nM
GI50 (SK-MEL-28 melanoma): 700 nM
TGI (SK-MEL-28 melanoma): 2150 nM
GI50 (UACC-62 melanoma): 488 nM
TGI (UACC-62 melanoma): 1310 nM
GI50 (MALME-3M melanoma): 316 nM
TGI (MALME-3M melanoma): 913 nM
GI50 (OVCAR-5 ovarian): 325 nM
TGI (OVCAR-5 ovarian): 1420 nM
GI50 (BT-549 breast): 226 nM
TGI (BT-549 breast): 695 nM
GI50 (MDA-MB-435): 1320 nM
TGI (MDA-MB-435): 3250 nM
GI50 (MDA-MB-231 breast): 412 nM
TGI (MDA-MB-231 breast): 2000 nM
GI50 (SNB-75 CNS): 253 nM
TGI (SNB-75 CNS): 748 nM
GI50 (U251 CNS): 440 nM
TGI (U251 CNS): 4190 nM
GI50 (SK-MEL-5 melanoma): 231 nM
TGI (SK-MEL-5 melanoma): 617 nM
GI50 (NCI-H23 lung): 174 nM
TGI (NCI-H23 lung): 743 nM
GI50 (HL-60(TB) leukemia): 274 nM
TGI (HL-60(TB) leukemia): 1770 nM
GI50 (NCI/ADR-RES ovarian): 420 nM
TGI (NCI/ADR-RES ovarian): 4580 nM
GI50 (RPMI-8226 leukemia): 5580 nM
TGI (RPMI-8226 leukemia): 32600 nM
GI50 (SF-539 CNS): 225 nM
TGI (SF-539 CNS): 614 nM
GI50 (OVCAR-3 ovarian): 415 nM
TGI (OVCAR-3 ovarian): 3250 nM
GI50 (UO-31 renal): 160 nM
TGI (UO-31 renal): 373 nM
GI50 (SN12C renal): 369 nM
TGI (SN12C renal): 2500 nM
GI50 (NCI-H460 lung): 159 nM
TGI (NCI-H460 lung): 3740 nM
GI50 (A498 renal): 317 nM
TGI (A498 renal): 902 nM
GI50 (HCT-116 colon): 272 nM
TGI (HCT-116 colon): 2480 nM
GI50 (M14 melanoma): 196 nM
TGI (M14 melanoma): 449 nM
GI50 (PC-3 prostate): 528 nM
TGI (PC-3 prostate): 5240 nM
GI50 (UACC-257 melanoma): 538 nM
TGI (UACC-257 melanoma): 2130 nM
GI50 (OVCAR-8 ovarian): 238 nM
TGI (OVCAR-8 ovarian): 926 nM
GI50 (K-562 leukemia): 3430 nM
TGI (K-562 leukemia): 17800 nM
GI50 (HOP-62 NSCLC): 234 nM
TGI (HOP-62 NSCLC): 753 nM
GI50 (SW-620 colon): 5790 nM
TGI (SW-620 colon): 19600 nM
GI50 (TK-10 renal): 318 nM
TGI (TK-10 renal): 1610 nM
GI50 (SK-MEL-2 melanoma): 520 nM
TGI (SK-MEL-2 melanoma): 1030 nM
GI50 (MCF7 breast): 426 nM
TGI (MCF7 breast): 12100 nM

Source: PubChem BioAssay (NCI)
